Measured values from ChEMBL document CHEMBL5729210, “Benzodiazepine derivatives as RSV inhibitors” (2022).
pEC50: −log10 of the molar value.

Assay: RSV-A Assay: The description is Japanese.

| SMILES | EC50 | pEC50 |
| --- | --- | --- |
| Cc1nsc(N2CCOCC2)c1-c1nnc(N[C@H]2N=C(c3ccccc3)c3ccccc3NC2=O)o1 | in the range around 600 nM | – |
| O=C1Nc2ccccc2C(c2ccc(F)cc2)=NC1Nc1nnc(-c2ccc(F)cc2)o1 (configuration not stated) | – | < 6.10 |
| COCCCc1cc(C(F)(F)F)cnc1C(=O)NN | – | < 6.10 |
| COC(C)(C)CNc1cc(C(F)(F)F)cnc1-c1nnc(N[C@H]2N=C(c3ccccc3)c3ccccc3NC2=O)o1 | – | < 6.10 |
| O=C1Nc2ccccc2C(c2ccccc2)=N[C@@H]1Nc1nnc(-c2nc3ccccc3nc2N2CCOCC2)o1 | – | > 6.40 |
| Cc1cc(-c2nnc(N[C@H]3N=C(c4ccccc4)c4ccccc4NC3=O)o2)n(C2CCOCC2)n1 | – | < 6.10 |
| O=C1Nc2ccccc2C(c2ccccc2)=N[C@@H]1Nc1nnc(-c2ncc(C(F)(F)F)cc2NC[C@@H]2CCCO2)o1 | in the range around 600 nM | – |
| COc1ccn2ncc(-c3nnc(N[C@H]4N=C(c5ccccc5)c5ccccc5NC4=O)o3)c2c1 | – | < 6.10 |
| N#Cc1ccn2ncc(-c3nnc(N[C@H]4N=C(c5ccccc5)c5ccccc5NC4=O)o3)c2c1 | – | < 6.10 |
| CCOC(=O)c1nc(C2(O)CCC2)sc1N1CCOCC1 | – | > 6.40 |
| O=C1Nc2ccccc2C(c2ccccc2)=N[C@@H]1Nc1nnc(-c2nc(-c3cccnc3)sc2N2CCOCC2)o1 | – | > 6.40 |
| O=C1Nc2ccccc2C(c2ccccc2)=NC1Nc1nnc(-c2cn(-c3ccc(F)cn3)nc2N2CCOCC2)o1 (configuration not stated) | – | > 6.40 |
| O=C1Nc2ccccc2C(c2ccccc2)=N[C@@H]1Nc1nnc(-c2ncc(C(F)(F)F)cc2N[C@H]2CC[C@H]2O)o1 | – | < 6.10 |
| CCOC(=O)c1csc(C(F)(F)C(F)(F)F)n1 | – | > 6.40 |
| O=C1Nc2ccccc2C(c2ccccc2)=N[C@@H]1Nc1nnc(-c2nc(-c3ccccc3F)sc2N2CCOCC2)o1 | – | > 6.40 |
| COCCNc1sccc1-c1nnc(N[C@H]2N=C(c3ccccc3)c3ccccc3NC2=O)o1 | – | < 6.10 |
| C#Cc1nc(C(=O)O)c(N2CCOCC2)s1 | – | > 6.40 |
| CO[C@@H]1COC[C@H]1Nc1cc(C(F)(F)F)cnc1-c1nnc(N[C@H]2N=C(c3ccccc3)c3ccccc3NC2=O)o1 | – | > 6.40 |
| O=C1Nc2ccccc2C(c2ccccc2)=N[C@@H]1Nc1nnc(-c2ncc(C(F)(F)F)cc2N[C@@H]2CCOC2)o1 | – | > 6.40 |
| O=C1Nc2ccccc2C(c2ccccc2)=NC1Nc1cc(N2CCOCC2)cnn1 (configuration not stated) | – | < 6.10 |
| COCCCc1sc(C)nc1-c1nnc(N[C@H]2N=C(c3ccccc3)c3ccccc3NC2=O)o1 | – | < 6.10 |
| O=C1Nc2ccccc2C(c2ccccc2)=N[C@@H]1Nc1nnc(-c2ncc(C(F)(F)F)cc2N[C@H]2CCOC2)o1 | – | < 6.10 |

| SMILES | EC50 | pEC50 |
| --- | --- | --- |
| CCOC(=O)c1nc(-c2ccc(C(F)(F)F)nc2)sc1N1CCOCC1 | – | > 6.40 |
| CCOC(=O)c1nc(-c2cnn(C)c2)sc1N1CCOCC1 | – | > 6.40 |
| COCCn1ccc2cccc(C(=O)OC)c21 | – | < 6.10 |
| N#Cc1ccc2nccc(-c3nnc(N[C@H]4N=C(c5ccccc5)c5ccccc5NC4=O)o3)c2c1 | – | < 6.10 |
| CC(C)(c1nc(-c2nnc(N[C@H]3N=C(c4ccccc4)c4ccccc4NC3=O)o2)c(N2CCOCC2)s1)N1CCOCC1 | – | > 6.40 |
| O=C1Nc2ccccc2C(c2ccccc2)=N[C@@H]1Nc1nnc(-c2nc(C3CCCCC3)sc2N2CCOCC2)o1 | – | > 6.40 |
| COC[C@H]1C[C@@H]1c1cc(C(F)(F)F)cnc1-c1nnc(N[C@@H]2N=C(c3ccccc3)c3ccccc3NC2=O)o1 | – | < 6.10 |
| O=C1Nc2ccccc2C(c2ccccc2)=N[C@@H]1Nc1nnc(-c2nc(-c3ccncc3)sc2N2CCOCC2)o1 | – | > 6.40 |
| O=C1Nc2ccccc2C(c2ccccc2)=N[C@@H]1Nc1nnc(-c2nc(C(F)(F)F)sc2N[C@@H]2CCOC2)o1 | – | > 6.40 |
| CCOC(=O)c1cnn2ccc(C)cc12 | – | < 6.10 |
| COC[C@H]1C[C@@H]1c1cc(C(F)(F)F)cnc1-c1nnc(N[C@H]2N=C(c3ccccc3)c3ccccc3NC2=O)o1 | – | < 6.10 |
| O=C1Nc2ccccc2C(c2ccccc2)=N[C@@H]1Nc1nnc(-c2ncc(C(F)(F)F)cc2N2CCOC(C(F)(F)F)C2)o1 (some centres not stated) | – | > 6.40 |
| O=C1Nc2ccccc2C(c2ccccc2)=N[C@@H]1Nc1nnc(-c2cn(-c3ccc(C(F)(F)F)cn3)nc2N2CCOCC2)o1 | in the range around 600 nM | – |
| COCCn1cc(-c2nnc(N[C@H]3N=C(c4ccccc4)c4ccccc4NC3=O)o2)c(N2CCOCC2)n1 | – | > 6.40 |
| COCC1(Nc2cc(C(F)(F)F)cnc2-c2nnc(N[C@H]3N=C(c4ccccc4)c4ccccc4NC3=O)o2)CC1 | – | < 6.10 |
| O=C1Nc2ccccc2C(c2ccccc2)=N[C@@H]1Nc1nnc(-c2nc(C3CCC3)sc2N2CCOCC2)o1 | – | > 6.40 |
| O=C1Nc2ccccc2C(c2ccccc2)=N[C@@H]1Nc1nnc(-c2cn(-c3ccccn3)nc2N2CCOCC2)o1 | – | > 6.40 |
| O=C1Nc2ccccc2C(c2ccccc2)=N[C@@H]1Nc1nnc(-c2oc3cc(F)ccc3c2N2CCOCC2)o1 | in the range around 600 nM | – |
| CCOC(=O)c1cn(CC)nc1N1CCOCC1 | – | > 6.40 |
| COCC(C)(C)Nc1cc(C(F)(F)F)cnc1-c1nnc(N[C@H]2N=C(c3ccccc3)c3ccccc3NC2=O)o1 | – | < 6.10 |
| CCOC(=O)c1nc(C(F)(F)F)sc1C1=CCOCC1 | – | > 6.40 |
| O=C1Nc2ccccc2C(c2ccccc2)=N[C@@H]1Nc1nnc(-c2ncc(C(F)(F)F)cc2NC[C@H]2CCCO2)o1 | – | > 6.40 |

| SMILES | EC50 | pEC50 |
| --- | --- | --- |
| O=C1OCCc2cc(C(F)(F)F)cnc21 | – | < 6.10 |
| COC[C@@H]1C[C@H]1c1cc(C(F)(F)F)cnc1-c1nnc(N[C@H]2N=C(c3ccccc3)c3ccccc3NC2=O)o1 | – | < 6.10 |
| COC[C@@H](C)Nc1sc(C(F)(F)F)nc1-c1nnc(N[C@H]2N=C(c3ccccc3)c3ccccc3NC2=O)o1 | in the range around 600 nM | – |
| CCOC(=O)c1ncc(C(F)F)cc1N1CCOCC1 | – | > 6.40 |
| CCOC(=O)c1ccnc2ccc(OC)cc12 | – | < 6.10 |
| COCCc1cccn2ncc(-c3nnc(N[C@H]4N=C(c5ccccc5)c5ccccc5NC4=O)o3)c12 | – | < 6.10 |
| CCOC(=O)c1ccnc2ccc(COC)cc12 | – | < 6.10 |
| COC[C@@H]1CCCN1c1sc(C(F)(F)F)nc1-c1nnc(N[C@H]2N=C(c3ccccc3)c3ccccc3NC2=O)o1 | – | < 6.10 |
| O=C1Nc2ccccc2C(c2ccccc2)=N[C@@H]1Nc1nnc(-c2nc(-c3ccc(F)cc3)sc2N2CCOCC2)o1 | – | > 6.40 |
| COC(=O)c1cc(C2CC2)sc1N1CCOCC1 | – | > 6.40 |
| O=C1Nc2ccccc2C(c2ccccc2)=N[C@@H]1Nc1nnc(-c2ncc(C(F)(F)F)cc2N2CCOC3CC32)o1 (some centres not stated) | – | > 6.40 |
| O=C1Nc2ccccc2C(c2ccccc2)=N[C@@H]1Nc1nnc(-c2cc(C(F)(F)F)sc2N2CCOCC2)o1 | – | > 6.40 |
| O=C1Nc2ccccc2C(c2ccccc2)=N[C@@H]1Nc1nnc(-c2cn(CC3CC3)nc2N2CCOCC2)o1 | < 400 nM and in the range around 600 nM | – |
| O=C1Nc2ccccc2C(c2ccccc2)=N[C@@H]1Nc1nnc(-c2nc(C(F)(F)F)sc2NCC2COC2)o1 | in the range around 600 nM | – |
| CCc1nc(-c2nnc(N[C@H]3N=C(c4ccccc4)c4ccccc4NC3=O)o2)c(N2CCOCC2)s1 | – | > 6.40 |
| O=C1Nc2ccccc2C(c2ccccc2)=N[C@@H]1Nc1nnc(-c2ccsc2N2CCOCC2)o1 | – | > 6.40 |
| O=C1Nc2ccccc2C(c2ccccc2)=N[C@@H]1Nc1nnc(-c2ncc(C(F)(F)F)cc2NC2COC2)o1 | – | > 6.40 |
| CC(C)n1cc(-c2nnc(N[C@H]3N=C(c4ccccc4)c4ccccc4NC3=O)o2)c(N2CCOCC2)n1 | – | > 6.40 |
| COCCCc1sc(C(F)(F)F)nc1-c1nnc(N[C@H]2N=C(c3ccccc3)c3ccccc3NC2=O)o1 | – | < 6.10 |
| O=C1Nc2ccccc2C(c2ccccc2)=N[C@@H]1Nc1nnc(-c2cn(-c3ccc(C(F)(F)F)nc3)nc2N2CCOCC2)o1 | < 400 nM and in the range around 600 nM | – |
| COCCCc1cc(C(F)(F)F)cnc1-c1nnc(N[C@H]2N=C(c3ccccc3)c3ccccc3NC2=O)o1 | – | < 6.10 |
| O=C1Nc2ccccc2C(c2ccccc2)=N[C@@H]1Nc1cc(-c2ccccc2)cnn1 | – | < 6.10 |

| SMILES | EC50 | pEC50 |
| --- | --- | --- |
| O=C1Nc2ccccc2C(c2ccccc2)=N[C@@H]1Nc1nnc(-c2ncc(C(F)(F)F)cc2N[C@@H]2CCC[C@@H]2O)o1 | in the range around 600 nM | – |
| CCOC(=O)c1cnn2c1N(CCOC)CCC2 | in the range around 600 nM | – |
| O=C1Nc2ccccc2C(c2ccccc2)=N[C@@H]1Nc1nnc(-c2oc3cccc(F)c3c2N2CCOCC2)o1 | – | > 6.40 |
| CCOC(=O)c1nc(-c2ccc(F)cn2)sc1N1CCOCC1 | – | > 6.40 |
| COC[C@@H]1C[C@H]1c1cc(C(F)(F)F)cnc1-c1nnc(N[C@@H]2N=C(c3ccccc3)c3ccccc3NC2=O)o1 | – | < 6.10 |
| COC[C@H]1CCCN1c1sc(C(F)(F)F)nc1-c1nnc(N[C@H]2N=C(c3ccccc3)c3ccccc3NC2=O)o1 | – | < 6.10 |
| CO[C@@H](C)CNc1sc(C(F)(F)F)nc1-c1nnc(N[C@H]2N=C(c3ccccc3)c3ccccc3NC2=O)o1 | – | > 6.40 |
| O=C1Nc2ccccc2C(c2ccccc2)=N[C@@H]1Nc1nnc(-c2cc3ccccc3nc2N2CCOCC2)o1 | – | > 6.40 |
| CC(C)(O)c1nc(-c2nnc(N[C@H]3N=C(c4ccccc4)c4ccccc4NC3=O)o2)c(N2CCOCC2)s1 | – | > 6.40 |
| O=C1Nc2ccccc2C(c2ccccc2)=N[C@@H]1Nc1nnc(-c2cn(C3CCC3)nc2N2CCOCC2)o1 | – | > 6.40 |
| O=C1Nc2ccccc2C(c2ccccc2)=N[C@@H]1Nc1nnc(-c2ncc(C(F)(F)F)cc2NCc2ccco2)o1 | – | < 6.10 |
| COCCNc1sc(C(F)(F)F)nc1-c1nnc(N[C@H]2N=C(c3ccccc3)c3ccccc3NC2=O)o1 | – | > 6.40 |
| CC1(c2nc(-c3nnc(N[C@H]4N=C(c5ccccc5)c5ccccc5NC4=O)o3)c(N3CCOCC3)s2)CCC1 | – | > 6.40 |
| CC(F)(F)c1nc(-c2nnc(N[C@H]3N=C(c4ccccc4)c4ccccc4NC3=O)o2)c(N2CCOCC2)s1 | – | > 6.40 |
| O=C1Nc2ccccc2C(c2ccccc2)=NC1Nc1nnc(-c2nc(Br)sc2N2CCOCC2)o1 (configuration not stated) | – | > 6.40 |
| CCOC(=O)c1cn(-c2cccnc2)nc1N1CCOCC1 | – | > 6.40 |
| COC1C2CNCC21 (configuration not stated) | – | < 6.10 |
| O=C1Nc2ccccc2C(c2ccccc2)=N[C@@H]1Nc1nnc(-c2ncc(C(F)(F)F)cc2N[C@H]2CCC[C@H]2O)o1 | in the range around 600 nM | – |
| CC1(Nc2cc(C(F)(F)F)cnc2-c2nnc(N[C@H]3N=C(c4ccccc4)c4ccccc4NC3=O)o2)CCOC1 (some centres not stated) | – | < 6.10 |
| O=C1Nc2ccccc2C(c2ccccc2)=N[C@@H]1Nc1nnc(-c2ncc(C(F)(F)F)cc2N2CCOc3ccccc32)o1 | – | < 6.10 |
| COC[C@@H]1C[C@H]1c1sc(C(F)(F)F)nc1-c1nnc(N[C@H]2N=C(c3ccccc3)c3ccccc3NC2=O)o1 | – | < 6.10 |
